Target: T1, Eg51-406 (Homo sapiens, UniProt P52732)
T1 construct: read as Eg5 residues 1-406
T1 sequence (P52732 1-1056): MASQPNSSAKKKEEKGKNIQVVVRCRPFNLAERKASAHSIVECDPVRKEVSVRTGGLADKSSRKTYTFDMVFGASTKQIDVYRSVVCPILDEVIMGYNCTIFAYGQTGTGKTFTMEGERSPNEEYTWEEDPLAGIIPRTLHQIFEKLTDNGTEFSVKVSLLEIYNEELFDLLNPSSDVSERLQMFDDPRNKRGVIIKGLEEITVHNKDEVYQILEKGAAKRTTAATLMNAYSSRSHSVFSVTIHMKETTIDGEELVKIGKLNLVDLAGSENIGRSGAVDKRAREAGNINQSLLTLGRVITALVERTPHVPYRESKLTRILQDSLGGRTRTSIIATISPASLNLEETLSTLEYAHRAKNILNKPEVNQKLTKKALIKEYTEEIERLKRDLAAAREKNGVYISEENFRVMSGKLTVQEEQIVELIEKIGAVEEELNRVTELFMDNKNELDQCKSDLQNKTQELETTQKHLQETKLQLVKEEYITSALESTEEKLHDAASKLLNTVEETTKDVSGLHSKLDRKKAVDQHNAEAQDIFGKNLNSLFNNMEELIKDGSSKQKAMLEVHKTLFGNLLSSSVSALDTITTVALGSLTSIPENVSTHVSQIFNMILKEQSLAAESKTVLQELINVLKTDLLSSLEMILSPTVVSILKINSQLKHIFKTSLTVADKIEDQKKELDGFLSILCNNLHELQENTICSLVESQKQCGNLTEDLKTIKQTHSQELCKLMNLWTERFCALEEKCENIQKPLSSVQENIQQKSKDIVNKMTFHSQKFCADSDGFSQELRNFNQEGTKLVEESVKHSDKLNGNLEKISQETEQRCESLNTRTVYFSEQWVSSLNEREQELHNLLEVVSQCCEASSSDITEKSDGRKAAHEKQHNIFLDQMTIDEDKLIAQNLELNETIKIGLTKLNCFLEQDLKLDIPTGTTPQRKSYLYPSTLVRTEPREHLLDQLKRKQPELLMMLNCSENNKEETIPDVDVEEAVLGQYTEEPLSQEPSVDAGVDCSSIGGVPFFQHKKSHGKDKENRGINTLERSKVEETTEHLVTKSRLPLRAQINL
Test: Inhibition of kinesin Eg5 activity, recombinant Eg51-406
Assay type: biochemical
Details: recombinant Eg51-406 (Table 5)
Source text: In an in vitro test, compound 1 was examined for inhibition of Eg5 activity [Kodama, T. et al. J. Biochem. 99: 1465-1472 (1986)].
Here, the recombinant kinesins Eg513-437 (Table 3) and Eg51-406 (Table 4) were used.
Tables 4 and 5 state the EC50 values of Eg5 inhibition for the compound 1 according to the invention.

SMILES: O=C(C=C1c2ccccc2C(=O)c2ccccc21)c1ccc(O)c(O)c1 [Compound 1, 10-[2-(3,4-dihydroxy-phenyl)-2-oxo-ethylidene]-10H-anthracen-9-one]
- EC50: 37.1 µM
